For seven compounds, IC50 results are on record in ChEMBL document CHEMBL1150931, “10-Oximeguanacone, the first nitrogenated acetogenin derivative found to be a potent inhibitor of mitochondrial complex I” (J Nat Prod, 1998).

A short description of assay [1]: Inhibition of NADH-oxidase activity of electron transport protein complex 1 in submitochondrial particles of bovine heart. Details: species or system Bos taurus.
Assay [2] is described as follows: Inhibition of NADH-ubiquinone oxidoreductase activity of electron transport protein complex 1 in submitochondrial particles of bovine heart. Also noted: species or system Bos taurus.

A word on the IC50: it is the midpoint of a concentration-inhibition curve. Low values mean higher potency, high ones lower potency. As for `CCCCCCCCCC[C@H](O)[C@H]1CC[C@H]([C@H]2CC[C@H]([C@H](O)CCCCC(=O)CCCCCCCC3=C[C@H](C)OC3=O)O2)O1` [GUANACONE], the IC50 in assay [1] worked out at 1.52 nM; in assay [2], 2.07 nM.

For `CCCCCCCCCC[C@H](O)[C@@H]1CC[C@H]([C@H]2CC[C@@H]([C@H](O)CCCCCCCC[C@@H](O)CC3=C[C@H](C)OC3=O)O2)O1` [ROLLIMEMBRIN], the figures for the IC50 in assay [1] and in assay [2] were 0.33 nM and 0.83 nM, respectively.

With `CCCCCCCCCC[C@H](O)[C@H]1CC[C@H]([C@H]2CC[C@H]([C@H](O)CCCCCCCCCCCCC3=C[C@H](C)OC3=O)O2)O1` [BULLANIN], the IC50 in assay [1] is 0.32 nM; in assay [2], 0.44 nM.

In the case of `CCCCCCCCCC[C@H](O)[C@H]1CC[C@H]([C@H]2CC[C@H]([C@H](O)CCCCCCCCCCC(O)CC3=C[C@H](C)OC3=O)O2)O1` (some centres undefined) [rolliniastatin-2], the IC50 in assay [1] stood at 0.51 nM; in assay [2], 0.61 nM.

For the compound `CCCCC[C@H](O)CCCC[C@H](O)[C@H]1CC[C@H]([C@H]2CC[C@H]([C@H](O)CCCCCCCCCCCCC3=C[C@H](C)OC3=O)O2)O1` [MOTRILIN], the IC50 in assay [1] stood at 0.41 nM; in assay [2], 0.81 nM.

For `CCCCCCCCCC[C@H](O)[C@H]1CC[C@H]([C@H]2CC[C@H]([C@H](O)CCCC/C(CCCCCCCC3=C[C@H](C)OC3=O)=N\O)O2)O1`, the IC50 in assay [1] came to 0.34 nM; in assay [2] it was 0.68 nM.

Take `CCCCCCCCCC[C@H](O)[C@H]1CC[C@H]([C@H]2CC[C@H]([C@H](O)CCCCC(O)CCCCCCCC3=C[C@H](C)OC3=O)O2)O1` (some centres undefined): the results for the IC50 in assay [1] and in assay [2] were 0.95 nM and 1.9 nM, respectively.
